Source: US12161669B2, “Compositions and methods for cell targeting therapies” (UMC UTRECHT HOLDING B.V., priority 2017, dated 2024)

Legend:
[1] = biological target: T1, RhoB GTPase (Homo sapiens, UniProt P62745); experiment: Biolayer interferometry of RhoB binding to BTN3A1 (CD277) intracellular domains; settings: for kd (1/s) / kd(1/Ms) / Kd: BLI, 1:1 binding model; for Kd: RhoB immobilized on Ni-NTA biosensor, cHDMAPP at 1:1 where named; for RhoB binding to recombinant CD277 intracellular domain constructs: without phosphoantigen
T1 construct: The full length RhoB protein was cloned into the pET 28a vector; thrombin cleavage site (C); made in house; host or cells: Escherichia coli BL21
T1 sequence (O00481 272-513 partner limits assumed): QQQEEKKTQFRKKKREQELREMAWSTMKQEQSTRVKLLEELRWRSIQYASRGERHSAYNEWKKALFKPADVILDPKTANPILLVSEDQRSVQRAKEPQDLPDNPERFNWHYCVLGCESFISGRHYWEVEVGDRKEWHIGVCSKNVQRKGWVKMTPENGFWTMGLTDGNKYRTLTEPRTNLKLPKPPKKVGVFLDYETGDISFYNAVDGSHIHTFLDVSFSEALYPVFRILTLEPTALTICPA
T1 sequence (P62745 1-192 limits assumed): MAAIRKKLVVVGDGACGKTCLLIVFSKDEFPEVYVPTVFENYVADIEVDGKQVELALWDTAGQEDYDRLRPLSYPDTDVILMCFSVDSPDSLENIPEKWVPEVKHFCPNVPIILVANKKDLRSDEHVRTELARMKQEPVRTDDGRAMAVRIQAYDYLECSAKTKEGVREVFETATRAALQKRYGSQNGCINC
Procedure: To determine whether CD277 exists as a homodimer when expressed in a cellular context, and to study RhoB-CD277 interactions at even higher resolution, close interactions by utilizing fluorescence resonance energy transfer (FRET) were examined. Flow cytometry FRET measurements were performed on ABP-sensitive HEK 293 cells, by either overexpressing FRET compatible fusion proteins or labeling endogenous proteins with antibodies coupled to FRET-compatible fluorochromes. […] Biolayer Interferometry (BLI) was used to formally define a possible docking site for RhoB on the intracellular domain of CD277.
The interactions between RhoB and BTN3A1 full-length intracellular domain (BFI) or BTN3A1 B30.2 domain were measured using Biolayer interferometry (BLItz, FortéBio). The BLI buffer used in baseline equilibration and the dissociation step was prepared with 10 mM Hepes pH7.2, 150 mM NaCl, 0.02% azide, 5 mM MgCl2, 4 mM BME. RhoB, at a concentration of 2 mg/ml, was immobilized on the Ni-NTA biosensor hydrated with the BLI buffer using the basic kinetics method with the following parameters: 30 s for baseline, 300 s for association and 300 s for dissociation. The RhoB-mounted biosensor was then blocked by 1 mg/ml BSA and equilibrated with the BLI buffer using a similar method with the following parameters: 30 s for baseline, 120 s for association and 120 s for dissociation. The buffer run served as a reference for the subsequent experiments. […] The ratio between cHDMAPP and BFI or B30.2 domain was kept at 1:1 for these measurements. The rate and affinity constants for binding interactions were analyzed by Biaevulation (Biacore Life Sciences). The data was truncated to 180 s and the ka and kd were fitted simultaneously using 1:1 binding with drift baseline model.

[2] = system: EBV-LCL 93 cells; experiment: IFNγ by Vγ9Vδ2 TCR+ T cells against Rho-modulator pretreated EBV-LCL 93; type: cell-based; settings: target cell pretreatment with Rho activator, in combination with pamidronate or IPP
Procedure: (§1) The impact of RhoB GTPase activity on Vγ9Vδ2 TCR+ T cell activation was assessed by […] different tumor cell lines with either the Rho GTPase activator calpeptin or inhibitor C3 transferase. […] To specify that enzymatic activity of RhoB regulates tumor cell recognition by Vγ9Vδ2 TCR+ T cells, we transfected HEK 293 cells with wildtype or dominant negative form corresponding to the GDP-bound state (RhoB-DN), or with the constitutively active form corresponding to the GTP-bound form (RhoB-CA) of RhoB (Kamon et al., 2006) and used them as target cells for Vγ9Vδ2 TCR+ T cells (FIG. 4E).
(§2) Alternatively, Vγ9Vδ2 TCR-transduced T cells and target cells were cocultured as above in round-bottom 96-well plates, and IFNγ levels in supernatants were measured by ELISA. Where indicated, target cells were pretreated with pamidronate (100 μM), IPP (15 μM), FTI (10 μM), GGTI (50 μM), calpeptin (2 μg/ml) or C3 transferase (20 μg/ml) prior to coincubation. For testing stimulation of WT1 αβTCR-transduced T cells, the HLA-A2+ cell lines EBV-LCL 48 and MZ1851RC were pulsed with 10 μM WT1126−134 peptide.

[3] = system: CD277; experiment: FRAP of CD277-emGFP membrane mobility in HEK 293 cells; type: cell-based; settings: 293 HEK cells; for CD277 membrane mobility (immobile fraction, FRAP): single agent
Procedure: FRAP analysis was performed as previously described (Harly et al., 2012, Sandstrom et al., 2014). In brief, HEK293FT cells expressing either EmGFP-fused CD277 were laid on m-slides (Ibidi) and analyzed using a Nikon A1 RS confocal microscope (60×NA 1.40 oil immersion objective). Selected rectangular areas were photobleached for 500 ms by using full power of laser intensity (>90% of loss of fluorescence). Images were collected every 5 s, before (30 s) and after (120 s) bleaching using low laser intensity. Images were analyzed with Metamorph 7.5 (Molecular Devices, Universal Imaging) and NIS (Nikon) imaging software. The resulting curves were fitted using one-phase exponential equations.

[4] = system: CD277 and F-actin; experiment: Colocalization of CD277 and F-actin in HEK 293 cells; type: cell-based
Procedure: To determine colocalization between BTN3 molecules and the actin cytoskeleton, HEK 293 cells were grown onto poly-L-lysin-coated coverslips and pretreated with either calpeptin (2 μg/ml) or C3 transferase (20 μg/ml) prior to treating samples with pamidronate Cells were fixed, permeabilized and BTN3 and F-actin were stained with DyLight 680-conjugated BTN3 antibody (clone BT3.1, Novus Biologicals) and Fluorescein-coupled phalloidin (Sigma), respectively. The correlation coefficient between BTN3 and F-actin signal was determined as a measure of colocalization using Volocity software.

[5] = system: LCL 48 cells; experiment: IFNγ by Vγ9Vδ2 TCR+ T cells against Rho-modulator pretreated EBV-LCL 48; type: cell-based; settings: target cell pretreatment with Rho inhibitor, in combination with pamidronate or IPP
Procedure: as §1, §2

[6] = system: CD277; experiment: Flow cytometry FRET between BODIPY FL-stained membrane and anti-CD277 mAbs (CD277 conformational change), HEK 293 cells; type: cell-based; settings: with ABP
Procedure: Conformational change of BTN3 molecule was determined similarly as described in ([…] et al., 2001). Cells were labeled with 5 ug/ml BODIPY-FL DPHE (donor) (Life Technologies) for 10 minutes on ice and then 10 minutes at 37 C, then washed extensively with ice-cold PBS. Cells were subsequently labeled with mouse anti-CD277 mAbs (either clone #20.1 or #103.2) and Alexa594-conjugated Goat anti-Mouse Fab fragments (Jackson ImmunoResearch). After washing, cells were resuspended in ice cold PBS and measured immediately using a FACS Canto-II flowcytometer (BD). FRET efficiency was calculated from the fractional decrease of the donor fluorescence in the presence of the acceptor.

Molecule | kd (1/s) [1] [s⁻¹] | kd(1/Ms) [1] [M⁻¹ s⁻¹] | Kd [1] [µM] | RhoB binding to recombinant CD277 intracellular domain constructs [1] | CD277 membrane mobility (immobile fraction, FRAP) [3] | also measured
RhoB-B30.2: interaction of RhoB with recombinant CD277 B30.2 domain lacking the N terminal connector region | 0.206 | 2020 | 102 | significantly reduced | – | –
RhoB-BFI: interaction of RhoB GTPase with recombinant full length BTN3A1 intracellular domain (BFI) | 0.04351 | 2200 | 19.7 | detected | – | –
CCCC[C@@H](C=O)NC(=O)[C@H](CC(C)C)NC(=O)OCc1ccccc1 [calpeptin] | – | – | – | – | induced immobilization of CD277 to similar levels as those of ABP treatment alone | recognition of EBV-LCL 93 cells by Vγ9Vδ2 TCR+ T cells (IFNγ) [2]: significantly sensitized; colocalization between CD277 and F-actin ([4]; single agent vs medium): reduced tantalization between CD277 and F-actin to comparable levels observed with ABP treatment
C3 transferase | – | – | – | – | – | activation of Vγ9Vδ2 TCR+ T cells by LCL 48 cells (IFNγ) [5]: significantly reduced activation; effect on ABP-induced immobilization of CD277 ([3]; together with zoledronate): counteracted this ABP-effect; effect on ABP-induced CD277-actin segregation ([4]; pretreatment before pamidronate): prevented ABP-induced CD277-actin segregation; effect on ABP-driven conformational changes of the CD277 homodimer [6]: did not prevent
C/C(=C\CCP(=O)(O)OP(=O)(O)O)CO [cHDMAPP, (2E)-1-hydroxy-2-methylpent-2-enyl-pyrophosphonate] | – | – | – | – | – | RhoB binding to BFI in the presence of soluble phosphoantigen ([1]; phosphoantigen 1:1 with BFI): almost completely abolished
O=P(O)(O)C(O)(Cn1ccnc1)P(=O)(O)O [zoledronate, zoledronic acid monohydrate] | – | – | – | – | decreased CD277 membrane mobility | –
